Paper PMC10459693, “Toward Stability Enhancement of NTS1R-Targeted Radioligands: Structural Interventions on [^99mTc]Tc-DT1” (Pharmaceutics, 2023)
Peptide text beside a SMILES is read from it. * marks the point of attachment. Palmitoyl = CCCCCCCCCCCCCCCC(=O)*; X1 = NCCNCC(CNCCN)C(=O)*

Assay: Radioligand metabolic stability in peripheral mouse blood (radio-HPLC)
Assay type: in vivo, mice
Conditions: peripheral mouse blood 5 min pi
Method: For the assessment of in vivo stability of [^99mTc]Tc-DT7/8/9, healthy Swiss Albino mice (33 animals, >8 weeks of age, body weight: 30 ± 5 g) were obtained from NCSR “Demokritos” Animal House (Athens, Greece). Animals were injected through the tail vein with the radioligand (100 μL, 2 nmol in vehicle: PBS/EtOH 9/1 v/v, with the addition of 0.1% Tween-80 in the case of [^99mTc]Tc-DT9) plus vehicle (100 μL; controls) or plus Lis (100 μg in 100 μL vehicle; Lis). Additional mice groups received per os a suspension of Entresto® (200 μL, 12 mg, 30 min prior to the i.v. injection of the radioligand plus vehicle—Entresto® group; or the i.v. injection of the radioligand plus Lis—Entresto®+Lis group). Animals were euthanized 5 min post injection (pi), and blood samples were drawn from the heart via a prechilled insulin syringe and transferred rapidly into pre-cooled 1.5 mL LoBind Eppendorf tubes containing EDTA (20 μL, 0.1 mM EDTA), and the collected radioactivity was measured in a dose calibrator (CURIEMENTOR 4, PTW Freiburg-GmbH; Freiburg, Germany). The tubes were centrifuged for 10 min at 2000× g at 4 °C in a Hettich Universal 320 R centrifuge (Tuttlingen, Germany). The plasma was collected, diluted in a 1:1 v/v ratio with MeCN, and thoroughly mixed; sample tubes were again centrifuged for 10 min at 15000× g at 4 °C. The supernatant was collected and the volume reduced to 50–100 μL under a gentle flux of N2 and mild heating at 60 °C. […] Sample activity was measured in the dose calibrator, and aliquots were analyzed by radio-HPLC on a Symmetry Shield RP18 cartridge column (5 μm, 3.9 mm × 20 mm; Waters, Eschborn, Germany) eluted at a flow rate of 1 mL/min with the linear gradient (system 2): from 100% A/0% B to 60% A/40% B in 40 min (A: 0.1% aqueous TFA; B: MeCN). […] The tR of intact [^99mTc]Tc-DT7, [^99mTc]Tc-DT8, or [^99mTc]Tc-DT9 was determined by co-injection of blood samples processed as above with an aliquot of the labeling solution. […]

## CCCCCCCCCCCCCCCC(=O)NCCCC[C@H](NC(=O)C(CNCCN)CNCCN)C(=O)N[C@@H](CCCNC(=N)N)C(=O)N[C@@H](CCCNC(=N)N)C(=O)N1CCC[C@H]1C(=O)N[C@@H](Cc1ccc(O)cc1)C(=O)N[C@H](C(=O)N[C@@H](CC(C)C)C(=O)O)[C@@H](C)CC [[^99mTc]Tc-DT9, metal not drawn] (X1-K(Palmitoyl)RRPYIL-OH)
Control
  intact radioligand: 98.06 ± 1.18 (n = 3) %
Entresto
  intact radioligand: 97.33 ± 1.7 (n = 3) %
Entresto+Lis
  intact radioligand: 93.72 ± 3.7 (n = 3) %
